Results: patent publication US8916711B2, “Imidazothiazole-chalcone derivatives as potential anticancer agents and process for the preparation thereof” (Council of Scientific and Industrial Research, priority 2009, dated 2014)
Read-outs that look alike come from different tables or passages of the source.

Columns and labels:
Type in all cases: cell-based
[1] = test system: K-562; experiment: NCI in vitro cytotoxicity (SRB, 48 h), Leukemia panel; conditions: Homo sapiens, K562; K-562, Leukemia; 48 h exposure
[2] = test system: SNB-19; experiment: NCI in vitro cytotoxicity (SRB, 48 h), CNS panel; conditions: Homo sapiens; SNB-19, CNS; 48 h exposure
[3] = test system: Non-small-cell lung cancer cell lines; experiment: NCI in vitro cytotoxicity, whole panel; conditions: Homo sapiens; for CC50: read-out: Log10 LC50 (converted)
[4] = test system: RPMI-8226; experiment: NCI in vitro cytotoxicity (SRB, 48 h), Leukemia panel; conditions: Homo sapiens; RPMI-8226, Leukemia; 48 h exposure
[5] = test system: NCI-H226; experiment: NCI in vitro cytotoxicity (SRB, 48 h), Non-small cell lung panel; conditions: Homo sapiens, 48 h exposure
[6] = test system: MDAMB-435; experiment: NCI in vitro cytotoxicity (SRB, 48 h), Melanoma panel; conditions: Homo sapiens, MDA-MB-435; MDAMB-435, Melanoma; 48 h exposure
[7] = test system: T-47D; experiment: NCI in vitro cytotoxicity (SRB, 48 h), Breast panel; conditions: Homo sapiens, T47D, 48 h exposure
[8] = test system: SF-295; experiment: NCI in vitro cytotoxicity (SRB, 48 h), CNS panel; conditions: Homo sapiens; SF-295, CNS; 48 h exposure
[9] = test system: A498; experiment: NCI in vitro cytotoxicity (SRB, 48 h), Renal panel; conditions: Homo sapiens, 48 h exposure
[10] = test system: ACHN; experiment: NCI in vitro cytotoxicity (SRB, 48 h), Renal panel; conditions: Homo sapiens, 48 h exposure
[11] = test system: IGROV1; experiment: NCI in vitro cytotoxicity (SRB, 48 h), Ovarian panel; conditions: Homo sapiens, IGROV-1
[12] = test system: A549/ATCC; experiment: NCI in vitro cytotoxicity (SRB, 48 h), Non-small cell lung panel; conditions: Homo sapiens, 48 h exposure
[13] = test system: NCI-H322M; experiment: as above; conditions: Homo sapiens, 48 h exposure
[14] = test system: SK-MEL-2; experiment: NCI in vitro cytotoxicity (SRB, 48 h), Melanoma panel; conditions: Homo sapiens; SK-MEL-2, Melanoma; 48 h exposure
[15] = test system: BT-549; experiment: NCI in vitro cytotoxicity (SRB, 48 h), Breast panel; conditions: Homo sapiens; BT-549, Breast; 48 h exposure
[16] = test system: SNB-75; experiment: NCI in vitro cytotoxicity (SRB, 48 h), CNS panel; conditions: Homo sapiens; SNB-75, CNS; 48 h exposure
[17] = test system: COLO 205; experiment: NCI in vitro cytotoxicity (SRB, 48 h), Colon panel; conditions: Homo sapiens; COLO 205, Colon; 48 h exposure
[18] = test system: MOLT-4; experiment: NCI in vitro cytotoxicity (SRB, 48 h), Leukemia panel; conditions: Homo sapiens; MOLT-4, Leukemia; 48 h exposure
[19] = test system: HCT-116; experiment: NCI in vitro cytotoxicity (SRB, 48 h), Colon panel; conditions: Homo sapiens; for IC50: HCT-116, HCT116, Table 4, read-out: Comparative efficacy
[20] = test system: SN12C; experiment: NCI in vitro cytotoxicity (SRB, 48 h), Renal panel; conditions: Homo sapiens, 48 h exposure
[21] = test system: SF-539; experiment: NCI in vitro cytotoxicity (SRB, 48 h), CNS panel; conditions: Homo sapiens; SF-539, CNS; 48 h exposure
[22] = test system: MCF7; experiment: NCI in vitro cytotoxicity (SRB, 48 h), Breast panel; conditions: Homo sapiens; for IC50: MCF7, MCF-7, Table 4, read-out: Comparative efficacy; for GI50: MCF7, Breast, 48 h exposure
Procedure: (§1) The imidazothiazole-chalcone hybrids 7a, 7e, 7f, 8f and 19e have been tested against sixty human tumour cell lines derived from nine cancer types (leukemia, non-small cell lung cancer, colon cancer, CNS cancer, melanoma, ovarian cancer, renal cancer, prostate cancer and breast cancer) as per NCI protocol. For each compound, dose response curves for individual cell lines have been measured at a minimum of five concentrations at 10 fold dilutions. A protocol of 48 h continuous drug exposure has been used, and a sulforhodamine B (SRB) protein assay was used to estimate cell viability or growth. The concentration for 50% cell growth inhibition (GI50), total cell growth inhibition (TGI, 0% growth) and 50% cell death (LC50, […]) compared with the control has been calculated (Table-1).

[23] = test system: MDA-MB-231/ATCC; experiment: as above; conditions: Homo sapiens; for GI50: Breast, 48 h exposure; for IC50: Table 4, read-out: Comparative efficacy
Procedure: as §1

[24] = test system: CAKI-1; experiment: NCI in vitro cytotoxicity (SRB, 48 h), Renal panel; conditions: Homo sapiens; for GI50: CAKI-1, Renal, 48 h exposure
[25] = test system: UACC-62; experiment: NCI in vitro cytotoxicity (SRB, 48 h), Melanoma panel; conditions: Homo sapiens; UACC-62, Melanoma; 48 h exposure
[26] = test system: NCI-H23; experiment: NCI in vitro cytotoxicity (SRB, 48 h), Non-small cell lung panel; conditions: Homo sapiens, 48 h exposure
[27] = test system: SF-268; experiment: NCI in vitro cytotoxicity (SRB, 48 h), CNS panel; conditions: Homo sapiens; SF-268, CNS; 48 h exposure
[28] = test system: CNS cancer cell lines; experiment: NCI in vitro cytotoxicity, whole panel; conditions: Homo sapiens; for CC50: read-out: Log10 LC50 (converted)
[29] = test system: NCI-H460; experiment: NCI in vitro cytotoxicity (SRB, 48 h), Non-small cell lung panel; conditions: Homo sapiens, 48 h exposure
[30] = test system: Colon cancer cell lines; experiment: NCI in vitro cytotoxicity, whole panel; conditions: Homo sapiens; for CC50: read-out: Log10 LC50 (converted)
[31] = test system: HCC-2998; experiment: NCI in vitro cytotoxicity (SRB, 48 h), Colon panel; conditions: Homo sapiens
[32] = test system: Breast cancer cell lines; experiment: NCI in vitro cytotoxicity, whole panel; conditions: Homo sapiens; for GI50 / CC50: Breast, average of six to eight cell lines; for GI50: read-out: Log10 GI50 (converted); for CC50: read-out: Log10 LC50 (converted); for IC50: exposure period of at least 48 hrs, read-out: IC50, range over breast cell lines
[33] = test system: OVCAR-5; experiment: NCI in vitro cytotoxicity (SRB, 48 h), Ovarian panel; conditions: Homo sapiens
[34] = test system: NCI/ADR-RES; experiment: as above; conditions: Homo sapiens, 48 h exposure
[35] = Non-small-cell lung, average of six to eight cell lines, read-out: Log10 GI50 (converted)
[36] = Non-small-cell lung, average of six to eight cell lines
[37] = exposure period of at least 48 hrs, read-out: GI50, range over lung cell lines
[38] = CNS cell, exposure period of at least 48 hrs, read-out: GI50, range over CNS cell lines
[39] = CNS, average of six to eight cell lines, read-out: Log10 GI50 (converted)
[40] = CNS, average of six to eight cell lines
[41] = Colon, average of six to eight cell lines, read-out: Log10 GI50 (converted)
[42] = Colon, average of six to eight cell lines
[43] = exposure period of at least 48 hrs, read-out: GI50, range over colon cell lines

SMILES: COc1cc(C(=O)/C=C/c2c(C(F)(F)F)nc3sccn23)cc(OC)c1OC [Compound 7f, (E)-3-(6-(trifluoromethyl)imidazo[2,1-b]thiazol-5-yl)-1-(3,4,5-trimethoxyphenyl)prop-2-en-1-one]
- GI50 [1]: 1.74 µM
- GI50 [2]: 2.67 µM
- GI50 [3, 35]: 2.45 µM
- CC50 [3, 36]: 26.9 µM
- GI50 [3, 37]: 1.65 to 7 µM
- GI50 [4]: 1.08 µM
- GI50 [5]: 2.17 µM
- GI50 [6]: 1.61 µM
- GI50 [7]: 2.12 µM
- GI50 [8]: 2.58 µM
- GI50 [9]: 1.89 µM
- GI50 [10]: 1.82 µM
- GI50 ([11]; IGROV1, Ovarian, 48 h exposure): 2.66 µM
- GI50 [12]: 3.44 µM
- GI50 [13]: 1.96 µM
- GI50 [14]: 2.26 µM
- GI50 [15]: 2.26 µM
- GI50 [16]: 1.87 µM
- GI50 [17]: 1.94 µM
- GI50 [18]: 1.92 µM
- IC50 [19]: 1.01 µM
- GI50 ([19]; HCT-116, Colon, 48 h exposure): 1.01 µM
- GI50 ([19]; HCT-116, colon): 1.01 µM
- GI50 [20]: 1.56 µM
- GI50 [21]: 1.55 µM
- IC50 [22]: 1.25 µM
- GI50 [22]: 1.25 µM
- GI50 [23]: 2.92 µM
- IC50 [23]: 2.92 µM
- GI50 [24]: 1.76 µM
- GI50 [25]: 1.52 µM
- GI50 [26]: 1.72 µM
- GI50 [27]: 1.74 µM
- GI50 [28, 38]: 1.38 to 2.67 µM
- GI50 [28, 39]: 1.91 µM
- CC50 [28, 40]: 12.6 µM
- GI50 [29]: 1.65 µM
- GI50 [30, 41]: 1.62 µM
- CC50 [30, 42]: 8.51 µM
- GI50 [30, 43]: 1.01 to 1.94 µM
- GI50 ([31]; HCC-2998, Colon, 48 h exposure): 1.71 µM
- GI50 ([31]; HCC-2998, colon): 1.71 µM
- GI50 [32]: 2.09 µM
- CC50 [32]: 24.5 µM
- IC50 [32]: 1.25 to 2.92 µM

SMILES: COc1ccc(-c2nc3sccn3c2/C=C/C(=O)c2cc(OC)c(OC)c(OC)c2)cc1 [Compound 7a, (E)-3-(6-(4-methoxyphenyl)imidazo[2,1-b]thiazol-5-yl)-1-(3,4,5-trimethoxyphenyl) prop-2-en-1-one]
- GI50 [1]: 1.72 µM
- GI50 [2]: 3.54 µM
- GI50 [3, 35]: 1.95 µM
- CC50 [3, 36]: 95.5 µM
- GI50 [3, 37]: 0.24 to 3.7 µM
- GI50 [5]: 2.58 µM
- GI50 [6]: 2.85 µM
- GI50 [7]: 2.26 µM
- GI50 [8]: 2.73 µM
- GI50 ([33]; OVCAR-5, Ovarian, 48 h exposure): 1.99 µM
- GI50 ([33]; OVCAR-5, ovarian): 1.99 µM
- GI50 [9]: 2.99 µM
- GI50 [10]: 4.08 µM
- GI50 ([11]; IGROV1, Ovarian, 48 h exposure): 0.21 µM
- GI50 ([11]; IGROV1, ovarian): 0.21 µM
- IC50 ([11]; IGROV1, Table 4, read-out: Comparative efficacy): 0.21 µM
- GI50 [12]: 2.21 µM
- GI50 [13]: 3.7 µM
- GI50 [14]: 2.42 µM
- GI50 [15]: 3.46 µM
- GI50 [16]: 2.29 µM
- GI50 [17]: 2.52 µM
- GI50 [18]: 2.52 µM
- IC50 [19]: 1.88 µM
- GI50 ([19]; HCT-116, Colon, 48 h exposure): 1.88 µM
- GI50 ([19]; HCT-116, colon): 1.88 µM
- GI50 [20]: 2.88 µM
- GI50 [21]: 1.66 µM
- IC50 [22]: 2.02 µM
- GI50 [22]: 2.02 µM
- GI50 [23]: 2.55 µM
- IC50 [23]: 2.55 µM
- GI50 [24]: 1.2 µM
- IC50 ([24]; CAKI-1, Table 4, read-out: Comparative efficacy): 1.2 µM
- GI50 [25]: 2.08 µM
- GI50 [26]: 2.18 µM
- GI50 [27]: 2.89 µM
- GI50 [28, 38]: 1.66 to 3.54 µM
- GI50 [28, 39]: 2.63 µM
- CC50 [28, 40]: ≥ 100 µM
- GI50 [29]: 2.7 µM
- GI50 [30, 41]: 2.63 µM
- CC50 [30, 42]: 72.4 µM
- GI50 [30, 43]: 1.77 to 3.45 µM
- GI50 ([31]; HCC-2998, Colon, 48 h exposure): 1.77 µM
- GI50 ([31]; HCC-2998, colon): 1.77 µM
- GI50 [34]: 2.57 µM
- GI50 [32]: 2.51 µM
- CC50 [32]: ≥ 100 µM
- IC50 [32]: 1.9 to 3.46 µM
